Experimental data as given in PubChem BioAssay (NCI).
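Five compound concentrations were applied to cells in 96-well plates for 48 hours; endpoints were derived by simple linear interpolation of the resulting dose-response curve. The concentration for 50% growth inhibition is given as GI50. TGI marks complete inhibition of growth.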

Experiments:
Experiment in all cases: NCI tumour cell line growth inhibition, 48 h
[1] = test system: MALME-3M melanoma
[2] = test system: HOP-62 NSCLC
[3] = test system: SR leukemia
[4] = test system: OVCAR-8 ovarian
[5] = test system: 786-0 renal
[6] = test system: IGROV1 ovarian
[7] = test system: CCRF-CEM leukemia
[8] = test system: RPMI-8226 leukemia
[9] = test system: NCI-H460 lung
[10] = test system: MDA-MB-231 breast
[11] = test system: MOLT-4 leukemia
[12] = test system: NCI-H226 lung
[13] = test system: OVCAR-5 ovarian
[14] = test system: A498 renal
[15] = test system: SK-MEL-2 melanoma
[16] = test system: DU-145 prostate
[17] = test system: U251 CNS
[18] = test system: HCC-2998 colon
[19] = test system: KM12 colon
[20] = test system: NCI-H522 lung
[21] = test system: CAKI-1 renal
[22] = test system: M14 melanoma
[23] = test system: SK-OV-3 ovarian
[24] = test system: UACC-257 melanoma
[25] = test system: T-47D breast
[26] = test system: K-562 leukemia
[27] = test system: UACC-62 melanoma
[28] = test system: OVCAR-3 ovarian
[29] = test system: PC-3 prostate
[30] = test system: HOP-92 NSCLC
[31] = test system: SF-539 CNS
[32] = test system: UO-31 renal
[33] = test system: NCI/ADR-RES ovarian
[34] = test system: SW-620 colon
[35] = test system: MCF7 breast
[36] = test system: MDA-MB-435
[37] = test system: A549 NSCLC
[38] = test system: SNB-19 CNS
[39] = test system: SK-MEL-5 melanoma
[40] = test system: LOX IMVI melanoma
[41] = test system: SF-268 CNS
[42] = test system: COLO 205 colon
[43] = test system: HT29 colon
[44] = test system: HCT-116 colon
[45] = test system: NCI-H23 lung
[46] = test system: EKVX NSCLC
[47] = test system: HCT-15 colon
[48] = test system: SF-295 CNS
[49] = test system: ACHN renal
[50] = test system: SN12C renal
[51] = test system: TK-10 renal
[52] = test system: BT-549 breast
[53] = test system: OVCAR-4 ovarian
[54] = test system: SNB-75 CNS
[55] = test system: HL-60(TB) leukemia
[56] = test system: RXF 393 renal
[57] = test system: HS 578T breast
[58] = test system: SK-MEL-28 melanoma

Q: Which results are given for O=C(Nc1ccc(-n2ccc3c(NC(=O)c4ccccc4)ncnc32)cc1)c1ccc(Cl)c(C(F)(F)F)c1?
A: GI50 [1]: 6.41 µM; TGI [1]: 21.2 µM; GI50 [2]: 3.45 µM; TGI [2]: 11.2 µM; GI50 [3]: 0.145 µM; TGI [3]: > 20.1 µM; GI50 [4]: 2.1 µM; GI50 [5]: 5.02 µM; TGI [5]: 23.6 µM; GI50 [6]: 5.81 µM; TGI [6]: 31 µM; GI50 [7]: 0.849 µM; TGI [7]: 18.2 µM; GI50 [8]: 1.63 µM; TGI [8]: 29 µM; GI50 [9]: 0.204 µM; TGI [9]: 4.8 µM; GI50 [10]: 1.93 µM; TGI [10]: 11.5 µM; GI50 [11]: 1.38 µM; TGI [11]: > 32 µM; GI50 [12]: 6.58 µM; TGI [12]: 25.1 µM; GI50 [13]: 3.87 µM; TGI [13]: 22.5 µM; GI50 [14]: 13 µM; TGI [14]: 29.4 µM; GI50 [15]: 2.36 µM; TGI [15]: 8.68 µM; GI50 [16]: 1.48 µM; TGI [16]: 8.46 µM; GI50 [17]: 0.462 µM; TGI [17]: 5.75 µM; GI50 [18]: 4.5 µM; TGI [18]: 23.5 µM; GI50 [19]: 0.939 µM; TGI [19]: 7.71 µM; GI50 [20]: 3.02 µM; TGI [20]: 13.3 µM; GI50 [21]: 0.83 µM; TGI [21]: 11.1 µM; GI50 [22]: 1.37 µM; TGI [22]: 9.47 µM; GI50 [23]: 11.1 µM; TGI [23]: 25.5 µM; GI50 [24]: 5.17 µM; TGI [24]: 24.5 µM; GI50 [25]: 2.9 µM; TGI [25]: 13.8 µM; GI50 [26]: 0.42 µM; TGI [26]: > 35 µM; GI50 [27]: 0.947 µM; TGI [27]: 12.2 µM; GI50 [28]: 3.44 µM; TGI [28]: 9.37 µM; GI50 [29]: 3.57 µM; TGI [29]: 14.7 µM; GI50 [30]: 8.16 µM; TGI [30]: 25.7 µM; GI50 [31]: 3.63 µM; TGI [31]: > 54.7 µM; GI50 [32]: 7.13 µM; TGI [32]: 23.7 µM; GI50 [33]: 3.1 µM; TGI [33]: 23.5 µM; GI50 [34]: 1.29 µM; TGI [34]: 6.21 µM; GI50 [35]: 1.91 µM; TGI [35]: 15.6 µM; GI50 [36]: 2.12 µM; TGI [36]: 10.3 µM; GI50 [37]: 1.84 µM; TGI [37]: 12.6 µM; GI50 [38]: 4.21 µM; TGI [38]: 17.8 µM; GI50 [39]: 0.603 µM; TGI [39]: 15.1 µM; GI50 [40]: 0.321 µM; TGI [40]: 3.71 µM; GI50 [41]: 2.17 µM; TGI [41]: 15.2 µM; GI50 [42]: 2.46 µM; TGI [42]: 17.2 µM; GI50 [43]: 0.752 µM; TGI [43]: 6.16 µM; GI50 [44]: 0.536 µM; TGI [44]: 7.26 µM; GI50 [45]: 13.1 µM; TGI [45]: 40.7 µM; GI50 [46]: 5.66 µM; TGI [46]: 25.4 µM; GI50 [47]: 0.116 µM; TGI [47]: 6.77 µM; GI50 [48]: 1.91 µM; TGI [48]: 20 µM; GI50 [49]: 1.28 µM; TGI [49]: 15.2 µM; GI50 [50]: 3.8 µM; TGI [50]: 16.5 µM; GI50 [51]: 5.17 µM; TGI [51]: 12.9 µM; GI50 [52]: 15.1 µM; TGI [52]: 48.8 µM; GI50 [53]: 2.63 µM; TGI [53]: 9.42 µM; GI50 [54]: 1.55 µM; TGI [54]: 11.4 µM; GI50 [55]: 4.99 µM; TGI [55]: > 52.8 µM; GI50 [56]: 4.74 µM; TGI [56]: 15.4 µM; GI50 [57]: 4.96 µM; TGI [57]: 15.6 µM; GI50 [58]: 4.9 µM; TGI [58]: 15.3 µM
